The values below are quoted from earlier work in US20230056488A1, “COMPOSITION, ARTICLE AND METHOD FOR AFFECTING A MAMMAL” (COOLHOUSE SOURCING LLC, priority 2020, published 2023).

For data set [1] the following is noted: oral and parenteral forms.
For data set [2] the following is noted: laboratory and animal research.
For data set [3] the following is noted: in vivo.
Data set [4] concerns ionotropic glutamate receptors.

As to `C[S@@+](CC[C@H](N)C(=O)[O-])C[C@H]1O[C@@H](n2cnc3c(N)ncnc32)[C@H](O)[C@@H]1O` [SAMe, (S)-2-amino-4-((SS)-(((2S,3S,4R,5R)-5-(6-amino-9H-purin-9-yl)-3,4-dihydroxytetrahydrofuran-2-yl)methyl)(methyl)sulfonio)butanoate], the “crossing of the blood-brain barrier / cerebrospinal fluid concentrations” value in data set [1] is “cross the blood-brain barrier and increase concentrations in cerebrospinal fluid”.
`CCCCCc1cc(O)c2c(c1)OC(C)(C)[C@@H]1CCC(C)=C[C@@H]21` [THC, tetrahydrocannabinol]: the toxicity to dogs result is given as “toxic to dogs”.
With `CCCc1cc(O)c2c(c1)OC(C)(C)[C@@H]1CCC(C)=C[C@@H]21` [THCV, Tetrahydrocannabivarin], the anti-inflammatory effects entry in data set [2] is given as “some anti-inflammatory effects”.
Consider `CCNC(=O)CC[C@H](N)C(=O)O` [Theanine, theanine], for which the “crossing of the blood brain barrier” value in data set [3] is on record as “cross the blood brain barrier (“BBB”) intact”. For the same compound, the “binding to ionotropic glutamate receptors (AMPA and kainate receptors; lesser extent NMDA)” value in data set [4] is on record as “micromolar range”.
